Laboratory results as given in US20240383908A1, “SYNTHESIS AND APPLICATION OF PHOSPHATASE DEGRADER” (HINOVA PHARMACEUTICALS INC., priority 2021, published 2024).

How the values were obtained:
SHP2 protein [1] = molecular target: T1, SHP2 protein (Homo sapiens, UniProt Q06124); experiment: Degradation activity on SHP2 protein in MIA Paca-2 cells (Western blot, DC50); assay type: cell-based; parameters: endogenous in cells; host or cells: MIA Paca-2 cells; settings: read-out: Degradation activity for differenct cell lines MIA Paca-2 (DC50)
T1 sequence (Q06124 1-593): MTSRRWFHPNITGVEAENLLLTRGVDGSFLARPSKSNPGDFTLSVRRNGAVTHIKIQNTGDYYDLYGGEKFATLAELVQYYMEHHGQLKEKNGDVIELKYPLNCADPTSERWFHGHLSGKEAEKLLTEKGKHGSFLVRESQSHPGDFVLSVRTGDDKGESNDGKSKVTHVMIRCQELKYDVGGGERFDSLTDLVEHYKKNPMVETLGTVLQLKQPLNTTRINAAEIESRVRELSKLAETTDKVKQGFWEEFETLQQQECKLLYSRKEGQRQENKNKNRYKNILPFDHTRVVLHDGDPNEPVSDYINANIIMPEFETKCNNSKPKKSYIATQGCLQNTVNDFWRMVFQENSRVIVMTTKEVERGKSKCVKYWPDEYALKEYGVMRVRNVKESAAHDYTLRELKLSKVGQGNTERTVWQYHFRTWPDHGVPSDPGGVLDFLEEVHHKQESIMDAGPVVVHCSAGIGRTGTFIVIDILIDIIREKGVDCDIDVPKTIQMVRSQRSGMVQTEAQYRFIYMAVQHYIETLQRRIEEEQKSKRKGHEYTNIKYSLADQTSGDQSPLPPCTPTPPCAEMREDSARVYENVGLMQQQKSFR
How it was run: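 DC50 is the concentration degrading 50% of SHP2 relative to DMSO control. It was derived by fitting Western blot band densitometry (anti-SHP2, GAPDH reference) from cells exposed 24 h to 0.1–100 nM compound in 0.1% DMSO.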

SHP2 protein [2] = molecular target: T1, SHP2 protein; experiment: Degradation activity on SHP2 protein in NCI-H358 cells (Western blot, DC50); assay type: cell-based; parameters: endogenous in cells; settings: read-out: Degradation activity for differenct cell lines NCI-H358 (DC50)
Protocol: (1) MV-411 cells were cultured in the cell culture medium, and then well-growing cells were selected and inoculated in a 12-well plate, with 1 mL/well and 1×10^6 cells/well. The plate was incubated overnight in a 5% CO2 cell incubator at 37° C.
(2) 10 mM storage solution of each drug was prepared using dimethylsulfoxide (DMSO). The stock solution was diluted gradually with DMSO before use, and then 1 μL of the compound solution was added to the cell culture well (to ensure that the DMSO concentration in the culture system was […]), so that the final drug concentration is 100 nM, 10 nM, 3 nM, 1 nM, 0.3 nM, and 0.1 nM. Two wells were set for each concentration. The plate was gently shaken and mixed. Additionally, negative control wells (containing an equal amount of DMSO) and positive control wells were included.
(3) After 24 hours of cultivation, the cells were lysed using RIPA cell lysate, and the proteins were extracted. The protein concentration was measured using a BCA assay kit. 5× concentrated protein buffer was loaded, heated at 100° C. for 5 min, and then the sample was stored at −20° C.
(4) For each well, 30 μg of protein was loaded to polyacrylamide gel for electrophoresis.
(5) The protein was transferred from polyacrylamide gel to PVDF membrane, and sealed at room temperature with 5% skimmed milk for 1 h, which was then incubated with the primary antibodies (Anti-SHP2 rabbit mAb and Anti-GAPDH rabbit mAb) at 4° C. overnight. The membrane was washed three times with TBST solution, 10 minutes for each time. After that, the membrane was incubated with the secondary antibodies (horseradish peroxidase labeled goat anti-rabbit IgG) at room temperature for 2 h, and then washed three times with TBST solution, 10 minutes for each time, followed by exposure.
(6) The images were analyzed with Image J grayscale, and the degradation ratio of protein bands in the test group was calculated, based on the negative control group (DMSO) (100%).
(7) Using the Dose-response-inhibition equation in the data processing software GraphPad Prism 8, the DC50 value was obtained (which represents the drug concentration corresponding to 50% degradation of the target protein).
Using similar methods and different cell lines, the degradation activity of the compound according to the present invention on SHP2 protein of different cell lines was tested under suitable culture conditions.

Compound | DC50 (SHP2 protein [1]) [nM] | DC50 (SHP2 protein [2]) [nM]
CC1(N)CCN(c2cnc(Sc3cccc(NC(=O)CCCCCCCCN4C5CCC4CC(c4ccc(C(=O)NCc6ccc7c(c6)CN(C6CCC(=O)NC6=O)C7=O)nn4)C5)c3)cn2)CC1 (single isomer, unassigned) [Compound 232] | < 100 | < 100
CC1(N)CCN(c2cnc(Sc3cccc(NC(=O)CCCCCCCCN4C5CCC4CC(c4ccc(C(=O)NCc6ccc7c(c6)CN(C6CCC(=O)NC6=O)C7=O)nn4)C5)c3)cn2)CC1 (single isomer, unassigned) [Compound 233] | – | < 100
CC1(N)CCN(c2cnc(Sc3cccc(NC(=O)CCCCCCCCN4C5CCC4CC(c4ccc(C(=O)NCc6ccc7c(c6)CN(C6CCC(=O)NC6=O)C7=O)nn4)C5)c3)cn2)CC1 (single isomer, unassigned) [Compound 234] | – | < 100
CC1(N)CCN(c2cnc(Sc3cccc(NC(=O)CCCCCCCOC4CCN(c5ccc(C(=O)NCc6ccc7c(c6)CN(C6CCC(=O)NC6=O)C7=O)nn5)CC4F)c3)cn2)CC1 (stereo not drawn) [Compound 147] | – | < 100
CC1(N)CCN(c2cnc(Sc3cccc(NC(=O)CCCCCCN4CC5(CCC(c6ccc(C(=O)NCc7ccc8c(c7)CN(C7CCC(=O)NC7=O)C8=O)nc6)CC5)C4)c3)cn2)CC1 (stereo not drawn) [Compound 216] | < 100 | < 100
CC1(N)CCN(c2cnc(Sc3cccc(NC(=O)CCCCCCN4CC5(CC=C(c6ccc(C(=O)NCc7ccc8c(c7)CN(C7CCC(=O)NC7=O)C8=O)nc6)CC5)C4)c3)cn2)CC1 (stereo not drawn) [Compound 217] | < 100 | < 100
CC1(N)CCN(c2cnc(Sc3cccc(NC(=O)CCCCCCCCN4CCC(c5ccc(C(=O)NCc6ccc7c(c6)CN(C6CCC(=O)NC6=O)C7=O)nn5)CC4)c3)cn2)CC1 (stereo not drawn) [Compound 218] | < 100 | < 100
CC1(N)CCN(c2cnc(Sc3cccc(NC(=O)CCCCCCCCN4C5C=C(c6ccc(C(=O)NCc7ccc8c(c7)CN(C7CCC(=O)NC7=O)C8=O)nn6)CC4CC5)c3)cn2)CC1 (stereo not drawn) [Compound 219] | < 100 | < 100
Cc1ncsc1-c1ccc([C@H](C)NC(=O)[C@@H]2C[C@@H](O)CN2C(=O)[C@@H](NC(=O)c2cnc(N3CCN(CCCCCC(=O)Nc4cccc(Sc5cnc(N6CCC(C)(N)CC6)cn5)c4)CC3)nc2)C(C)(C)C)cc1 [Compound 220] | < 100 | < 100
Cc1ncsc1-c1ccc([C@H](C)NC(=O)[C@@H]2C[C@@H](O)CN2C(=O)[C@@H](NC(=O)c2cnc(N3CCN(CCCCC(=O)Nc4cccc(Sc5cnc(N6CCC(C)(N)CC6)cn5)c4)CC3)nc2)C(C)(C)C)cc1 [Compound 221] | < 100 | < 100
CC1(N)CCN(c2cnc(Sc3cccc(NC(=O)CCCCCCCCN4CC=C(c5ccc(C(=O)NCc6ccc7c(c6)CN(C6CCC(=O)NC6=O)C7=O)nc5)C(C)(C)C4)c3)cn2)CC1 (stereo not drawn) [Compound 222] | < 100 | < 100
CCC1(N)CCN(c2cnc(Sc3cccc(NC(=O)CCCCCCCCN4CCC(c5ccc(C(=O)NCc6ccc7c(c6)CN(C6CCC(=O)NC6=O)C7=O)nn5)CC4)c3)cn2)CC1 (stereo not drawn) [Compound 223] | < 100 | < 100
CC1(N)C2CCC1CN(c1cnc(Sc3cccc(NC(=O)CCCCCCCCN4CCC(c5ccc(C(=O)NCc6ccc7c(c6)CN(C6CCC(=O)NC6=O)C7=O)nn5)CC4)c3)cn1)C2 (stereo not drawn) [Compound 224] | < 100 | < 100
CC1(N)CCN(c2cnc(Sc3cccc(NC(=O)CCCCCCCCN4CCN(c5ccc(C(=O)NCc6ccc7c(c6)CN(C6CCC(=O)NC6=O)C7=O)nn5)CC4C(F)(F)F)c3)cn2)CC1 (stereo not drawn) [Compound 225] | – | < 100
CCC1(N)CCN(c2cnc(Sc3cccc(NC(=O)CCCCCCCCN4CCN(c5ccc(C(=O)NCc6ccc7c(c6)CN(C6CCC(=O)NC6=O)C7=O)nn5)CC4C(F)(F)F)c3)cn2)CC1 (stereo not drawn) [Compound 226] | < 100 | < 100
CC1(N)CCN(c2cnc(Sc3cccc(NC(=O)CCCCCCCCN4CCN(c5ccc(C(=O)NCc6ccc7c(c6)CN(C6CCC(=O)NC6=O)C7=O)nc5Cl)CC4C(F)(F)F)c3)cn2)CC1 (stereo not drawn) [Compound 227] | < 100 | < 100
CC1CC(c2ccc(C(=O)NCc3ccc4c(c3)CN(C3CCC(=O)NC3=O)C4=O)nn2)=CCN1CCCCCCCCC(=O)Nc1cccc(Sc2cnc(N3CCC(C)(N)CC3)cn2)c1 (stereo not drawn) [Compound 228] | < 100 | < 100
CC1(N)CCN(c2cnc(Sc3cccc(NC(=O)CCCCCCCCN4CCN(c5ccc(C(=O)NCc6ccc7c(c6)CN(C6CCC(=O)NC6=O)C7=O)cc5)CC4)c3)cn2)CC1 (stereo not drawn) [Compound 229] | < 100 | < 100
Cc1ncsc1-c1ccc([C@H](C)NC(=O)[C@@H]2C[C@@H](O)CN2C(=O)[C@@H](NC(=O)c2cnc(N3CCN(CCCC(=O)Nc4cccc(Sc5cnc(N6CCC7(CC6)CO[C@@H](C)[C@H]7N)cn5)c4)CC3)nc2)C(C)(C)C)cc1 [Compound 230] | < 100 | < 100
Cc1ncsc1-c1ccc([C@H](C)NC(=O)[C@@H]2C[C@@H](O)CN2C(=O)[C@@H](NC(=O)c2cnc(N3CCN(CC(=O)Nc4cccc(Sc5cnc(N6CCC(C)(N)CC6)cn5)c4)CC3)nc2)C(C)(C)C)cc1 [Compound 231] | > 1000 | > 1000
CC1(N)CCN(c2cnc(Sc3cccc(NC(=O)CCCCCCCCN4CCc5cc(C(=O)NCc6ccc7c(c6)CN(C6CCC(=O)NC6=O)C7=O)cnc5C4)c3)cn2)CC1 (stereo not drawn) [Compound 235] | – | < 100
CC1(N)CCN(c2cnc(Sc3cccc(NC(=O)CCCCOc4ccc(N5CCN(c6ccc(C(=O)NCc7ccc8c(c7)CN(C7CCC(=O)NC7=O)C8=O)nn6)CC5)cc4)c3)cn2)CC1 (stereo not drawn) [Compound 236] | – | < 100
CC1(N)CCN(c2cnc(Sc3cccc(NC(=O)CCCCCCCCN4C[C@@H]5C[C@H]4CN5c4ccc(C(=O)NCc5ccc6c(c5)CN(C5CCC(=O)NC5=O)C6=O)nn4)c3)cn2)CC1 (stereo partly drawn) [Compound 237] | < 100 | < 100
CC1(N)CCN(c2cnc(Sc3cccc(NC(=O)CCCCCCCCN4C[C@H]5C[C@@H]4CN5c4ccc(C(=O)NCc5ccc6c(c5)CN(C5CCC(=O)NC5=O)C6=O)nn4)c3)cn2)CC1 (stereo partly drawn) [Compound 238] | < 100 | < 100
C[C@@H]1CN(CCCCCCCCC(=O)Nc2cccc(Sc3cnc(N4CCC(C)(N)CC4)cn3)c2)CCN1c1ccc(C(=O)NCc2ccc3c(c2)CN(C2CCC(=O)NC2=O)C3=O)nn1 (stereo partly drawn) [Compound 239] | < 100 | < 100
Cc1ncsc1-c1ccc([C@H](C)NC(=O)[C@@H]2C[C@@H](O)CN2C(=O)[C@@H](NC(=O)c2cnc(N3CC(OCC(=O)Nc4cccc(Sc5cnc(N6CCC(C)(N)CC6)cn5)c4)C3)nc2)C(C)(C)C)cc1 [Compound 240] | – | > 1000
Cc1ncsc1-c1ccc([C@H](C)NC(=O)[C@@H]2C[C@@H](O)CN2C(=O)[C@@H](NC(=O)c2cnc(N3CCN(CCCCCCC(=O)Nc4cccc(Sc5cnc(N6CCC(C)(N)CC6)cn5)c4)CC3)nc2)C(C)(C)C)cc1 [Compound 241] | < 100 | < 100
CC1CN(CCCCCCCCC(=O)Nc2cccc(Sc3cnc(N4CCC(C)(N)CC4)cn3)c2)CC=C1c1ccc(C(=O)NC(C)c2ccc3c(c2)CN(C2CCC(=O)NC2=O)C3=O)nc1 (stereo not drawn) [Compound 242] | < 100 | < 100
CC1CN(CCCCCCCCC(=O)Nc2cccc(Sc3cnc(N4CCC(C)(N)CC4)cn3)c2)CC=C1c1ccc(C(=O)NCc2ccc3c(c2)CN(C2CCC(=O)NC2=O)C3=O)nc1 (stereo not drawn) [Compound 243] | < 100 | < 100
